Experimental data taken from PubChem BioAssay AID256 (DTP/NCI, 2004).
“And” between values parts separate entries of the source, which are not always exact repeats. Identical values can stand only once. Toxic doses and inconclusive results are not listed. Rule for the calls: active = survival T/C of 150% or more; inactive = T/C below 125% in these data.

Tested on: CD2F1 mice, L1210 leukemia ip, survival T/C
Experiment: NCI In Vivo Anticancer Drug Screen. Data for tumor model L1210 Leukemia (intraperitoneal) in CD2F1 (CDF1) mice
Conditions: endpoint: mean survival time, higher = longer survival
How it was run: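 Tumor-bearing mice (transplanted tumor) were split into treated and vehicle control groups, and the measured endpoint of each treated group was divided by that of its vehicle controls.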

[1] = dose: 12.5 mg/kg/injection, schedule: Q01DX005 (ip), vehicle: distilled water + Tween-80
[2] = dose: 25.0 mg/kg/injection, schedule: Q01DX005 (ip), vehicle: distilled water + Tween-80
[3] = dose: 50.0 mg/kg/injection, schedule: Q01DX005 (ip), vehicle: distilled water + Tween-80
[4] = dose: 100.0 mg/kg/injection, schedule: Q01DX005 (ip), vehicle: distilled water + Tween-80
[5] = dose: 200.0 mg/kg/injection, schedule: Q01DX005 (ip), vehicle: distilled water + Tween-80
[6] = dose: 25.0 mg/kg/injection, schedule: Q01DX005 (ip), vehicle: water
[7] = dose: 100.0 mg/kg/injection, schedule: Q01DX009 (ip), vehicle: saline
[8] = dose: 100.0 mg/kg/injection, schedule: Q04DX003 (ip), vehicle: saline
[9] = dose: 100.0 mg/kg/injection, schedule: Q04DX002 (ip), vehicle: saline with Tween-80
[10] = dose: 100.0 mg/kg/injection, schedule: Q04DX003 (ip), vehicle: saline with Tween-80
[11] = dose: 200.0 mg/kg/injection, schedule: Q04DX002 (ip), vehicle: saline with Tween-80
[12] = dose: 200.0 mg/kg/injection, schedule: Q04DX003 (ip), vehicle: saline with Tween-80
[13] = dose: 400.0 mg/kg/injection, schedule: Q04DX002 (ip), vehicle: saline with Tween-80
[14] = dose: 100.0 mg/kg/injection, schedule: Q01DX009 (ip), vehicle: saline with Tween-80
[15] = dose: 200.0 mg/kg/injection, schedule: Q01DX009 (ip), vehicle: saline with Tween-80
[16] = dose: 400.0 mg/kg/injection, schedule: Q01DX009 (ip), vehicle: saline with Tween-80
[17] = dose: 400.0 mg/kg/injection, schedule: Q04DX003 (ip), vehicle: saline with Tween-80

Measured: T/C

O=c1ccn(C2OC(CO)C(O)C2O)c(/C=C(\O)c2ccccc2)n1 (stereo unspecified)
inactive: [1] 105 % of control | [2] 97 % of control | [3] 97 % of control | [4] 102 % of control | [5] 102 % of control

Nc1nc(=O)n(C2OC(CO)C(O)C2O)c2sccc12 (stereo unspecified)
inactive: [6] 94 % of control | dose: 50.0 mg/kg/injection, schedule: Q01DX005 (ip), vehicle: water 94 % of control | dose: 100.0 mg/kg/injection, schedule: Q01DX005 (ip), vehicle: water 89 % of control | dose: 200.0 mg/kg/injection, schedule: Q01DX005 (ip), vehicle: water 89 % of control

CC1(C)OC2C(C3N(c4ccccc4)CCN3c3ccccc3)OC(n3ccc(=O)[nH]c3=O)C2O1 (stereo unspecified)
inactive: [1] 97 % of control | [2] 94 % of control | [3] 94 % of control | [4] 91 % of control | [5] 96 % of control

CC[N+]1(C2CCC3CCC2C3O)CCOCC1 (stereo unspecified)
inactive: dose: 25.0 mg/kg/injection, schedule: Q01DX009 (ip), vehicle: saline 91 % of control | dose: 25.0 mg/kg/injection, schedule: Q04DX003 (ip), vehicle: saline 95 % of control | dose: 50.0 mg/kg/injection, schedule: Q01DX009 (ip), vehicle: saline 94 % of control | dose: 50.0 mg/kg/injection, schedule: Q04DX003 (ip), vehicle: saline 97 % of control | dose: 100.0 mg/kg/injection, schedule: Q01DX001 (ip), vehicle: saline with Tween-80 100 % of control | [7] 92 % of control | [8] 100 % of control

COC(=O)C1CCCCC1C(=O)OC (stereo unspecified)
inactive: [9] 97 % of control | [10] 104 % of control | [11] 97 % of control | [12] 98 % of control | [13] 101 % of control

COc1cccc2c1C(=O)c1c(O)c3c(c(O)c1C2=O)C[C@@](O)(/C(C)=N/NC(=O)c1ccc(Cl)cc1)C[C@@H]3OC1CC(N)C(O)C(C)O1 (stereo partly specified)
inactive: dose: 0.5 mg/kg/injection, schedule: Q01DX009 (ip), vehicle: saline 96 % of control | dose: 0.5 mg/kg/injection, schedule: Q01DX009 (ip), vehicle: suspension in saline 110 % of control | dose: 1.0 mg/kg/injection, schedule: Q01DX009 (ip), vehicle: suspension in saline 115 % of control | dose: 2.0 mg/kg/injection, schedule: Q01DX009 (ip), vehicle: saline 122 % of control | dose: 2.0 mg/kg/injection, schedule: Q01DX009 (ip), vehicle: suspension in saline 118 % of control | dose: 16.0 mg/kg/injection, schedule: Q01DX009 (ip), vehicle: saline 108 % of control

Nc1nc2c(ncn2CCCCc2ccccc2)c(=O)[nH]1
inactive: [9] 94 % of control | [11] 94 % of control | [13] 94 % of control

N#Cc1cc([N+](=O)[O-])ccc1Cl
inactive: dose: 50.0 mg/kg/injection, schedule: Q01DX009 (ip), vehicle: saline with Tween-80 96 % of control | [14] 91 % of control | [10] 105 % of control | [12] 103 % of control

CC1(C)C2=CCCC3(OCCO3)C2(C)CCC1O (stereo unspecified)
inactive: [14] 104 % of control | [10] 98 % of control | [15] 106 % of control | [12] 98 % of control | [16] 98 % of control | [17] 101 % of control

O=c1[nH]cc(C(O)Cc2ccccc2)c(=O)[nH]1 (stereo unspecified)
inactive: [14] 97 % of control | [10] 104 % of control | [15] 100 % of control | [12] 94 % of control | [16] 97 % of control | [17] 98 % of control

O=C1CSC(=S)N1/N=C/c1ccc(F)cc1
inactive: dose: 75.0 mg/kg/injection, schedule: Q01DX001 (ip), vehicle: other 100 % of control | dose: 150.0 mg/kg/injection, schedule: Q01DX001 (ip), vehicle: other 102 % of control | dose: 300.0 mg/kg/injection, schedule: Q01DX001 (ip), vehicle: other 98 % of control

CC(=O)OCC1OC(N2C(=O)C=CC2=O)C(OC(C)=O)C1OC(C)=O (stereo unspecified)
inactive: dose: 1.56 mg/kg/injection, schedule: Q01DX005 (ip), vehicle: water 110 % of control | dose: 3.13 mg/kg/injection, schedule: Q01DX005 (ip), vehicle: water 96 % of control | dose: 6.25 mg/kg/injection, schedule: Q01DX005 (ip), vehicle: water 104 % of control | dose: 12.5 mg/kg/injection, schedule: Q01DX005 (ip), vehicle: water 95 % of control and 102 % of control | [6] 106 % of control

CN(C)CC#N
inactive: dose: 5.0 mg/kg/injection, schedule: Q01DX009 (ip), vehicle: saline sonified 97 % of control | dose: 5.0 mg/kg/injection, schedule: Q04DX003 (ip), vehicle: saline 103 % of control | dose: 10.0 mg/kg/injection, schedule: Q01DX009 (ip), vehicle: saline sonified 97 % of control | dose: 10.0 mg/kg/injection, schedule: Q04DX003 (ip), vehicle: saline 97 % of control | dose: 20.0 mg/kg/injection, schedule: Q01DX009 (ip), vehicle: saline sonified 98 % of control | dose: 20.0 mg/kg/injection, schedule: Q04DX003 (ip), vehicle: saline 95 % of control

S=C1NC(c2ccccc2)Nc2ccccc21 (stereo unspecified)
inactive: [10] 91 % of control | [12] 95 % of control

c1ccc(CNCc2ccccc2)cc1
inactive: dose: 100.0 mg/kg/injection, schedule: Q04DX003 (ip), vehicle: Klucel (hydroxypropylcellulose) (HPC) 97 % of control | dose: 200.0 mg/kg/injection, schedule: Q04DX003 (ip), vehicle: Klucel (hydroxypropylcellulose) (HPC) 100 % of control

CC(C)=CC1C(C(=O)OCc2ccc(C)cc2C)C1(C)C (stereo unspecified)
inactive: dose: 50.0 mg/kg/injection, schedule: Q01DX001 (ip), vehicle: saline 94 % of control | dose: 100.0 mg/kg/injection, schedule: Q01DX001 (ip), vehicle: saline 91 % of control | [7] 96 % of control | [8] 87 % of control | dose: 200.0 mg/kg/injection, schedule: Q01DX009 (ip), vehicle: saline 96 % of control | dose: 200.0 mg/kg/injection, schedule: Q04DX003 (ip), vehicle: saline 87 % of control | dose: 400.0 mg/kg/injection, schedule: Q01DX001 (ip), vehicle: saline 100 % of control | dose: 400.0 mg/kg/injection, schedule: Q01DX009 (ip), vehicle: saline 102 % of control | dose: 400.0 mg/kg/injection, schedule: Q04DX003 (ip), vehicle: saline 94 % of control

O=C(O)COC(C[N+](=O)[O-])C(Cl)(Cl)Cl (stereo unspecified)
inactive: [10] 93 % of control | [12] 104 % of control | [17] 98 % of control
